Drawing on ChEMBL document CHEMBL3779781, “New direct inhibitors of InhA with antimycobacterial activity based on a tetrahydropyran scaffold” (Eur J Med Chem, 2016), this text covers Ratio and MIC for 3 compounds.

Each structure is given as a SMILES string. In brackets after ≈: the same amount, converted by molar mass.

In assay [1] the test system is Mycobacterium tuberculosis. Kind of assay: Ratio of MIC for Mycobacterium bovis BCG overexpressing InhA to MIC for Mycobacterium bovis BCG. Format: functional, variant bovis BCG.
The test system of assay [2] is Mycobacterium tuberculosis. Nature of the assay: Antimycobacterial activity against Mycobacterium bovis BCG overexpressing InhA after 2 weeks. In kind it is functional. The note with it: variant bovis BCG, 336 h.
Assay [3] deals with Mycobacterium tuberculosis. Nature of the assay: Antimycobacterial activity against Mycobacterium bovis BCG after 2 weeks. In kind it is functional. The note with it: variant bovis BCG, 336 h.

Take `Cc1cc(C)n(Cc2ccc(C(=O)NCC3(c4nc(-c5ccccc5)cs4)CCOCC3)cc2)n1`: the Ratio in assay [1] is on record as 4. Moreover, the MIC in assay [2] amounted to 31.3 µg/mL (≈ 64.3 µM); in assay [3], 7.8 µg/mL (≈ 16 µM).

With `NNC(=O)c1ccncc1` [ISONIAZID], the Ratio in assay [1] is listed as >21. In addition, the values for the MIC in assay [2] and in assay [3] were > 16 µg/mL and 0.75 µg/mL (≈ 5.47 µM), respectively.

For the compound `NC[C@H]1O[C@H](O[C@H]2[C@H](O)[C@@H](O[C@H]3O[C@H](CO)[C@@H](O)[C@H](N)[C@H]3O)[C@H](N)C[C@@H]2N)[C@H](O)[C@@H](O)[C@@H]1O` [KANAMYCIN], the Ratio in assay [1] worked out at 1. Besides, the MIC in assay [2] and in assay [3] was 0.6 µg/mL (≈ 1.24 µM) throughout.
